From ChEMBL document CHEMBL5209577, “Flow cytometry transport assay for SLC2A1 using HEK293 JumpIN TRex SLC2A1 WT-OE cells” (2022)

Biological target: T1, Solute carrier family 2, facilitated glucose transporter member 1 (Homo sapiens, UniProt P11166)
T1 sequence (P11166 whole entry): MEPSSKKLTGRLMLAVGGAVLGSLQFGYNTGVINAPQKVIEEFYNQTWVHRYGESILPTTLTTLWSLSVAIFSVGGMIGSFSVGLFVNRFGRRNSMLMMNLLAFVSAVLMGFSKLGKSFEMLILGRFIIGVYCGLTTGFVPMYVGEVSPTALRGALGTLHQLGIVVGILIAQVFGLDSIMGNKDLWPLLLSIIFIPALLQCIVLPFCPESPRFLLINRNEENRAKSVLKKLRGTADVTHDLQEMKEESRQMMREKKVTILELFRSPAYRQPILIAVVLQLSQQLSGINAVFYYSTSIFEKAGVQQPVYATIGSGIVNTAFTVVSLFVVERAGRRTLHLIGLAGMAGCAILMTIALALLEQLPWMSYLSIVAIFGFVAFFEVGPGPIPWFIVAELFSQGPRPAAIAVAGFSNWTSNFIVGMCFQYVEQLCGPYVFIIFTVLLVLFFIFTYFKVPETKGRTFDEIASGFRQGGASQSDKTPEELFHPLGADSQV
Assay: Inhibition of the Glucose Transporter (GLUT1, SLC2A1) as assessed by a FRET based flow cytometry assay using a genetically-encoded biosensor for measuring free glucose (FLII12Pglu-700uDelta6) in HEK293 JumpIN TRex SLC2A1 WT-OE cells (PubChem AID: 1794830)
Type: functional, cell-based

| IC50 [µM] | EC50 [µM] | SMILES |
| --- | --- | --- |
| > 10 |  | O=C(Oc1cccc(F)c1OC(=O)c1cccc(O)c1)c1cccc(O)c1 |
|  | 527 | OC[C@H]1OC(O)[C@H](O)[C@@H](O)[C@@H]1O (some centres not stated) [DEXTROSE] |
